How the values were obtained:
[1] = test system: Rattus norvegicus; test: Analgesic activity in po dosed Sprague-Dawley rat assessed as inhibition of warm-water tail withdrawal reflex by measuring dose required to produce withdrawal latency >4 seconds measured every hour of 24 hrs relative to methadone; type: functional
[2] = organism: Rattus norvegicus; test: animal or person; type: functional; settings: Sprague-Dawley, Tail, po, 24 h

| Structure (SMILES) | Ratio [1] | ED50 [2] |
| --- | --- | --- |
| CCC(=O)C(CCN1CCC2(CCCc3ccccc32)CC1)(c1ccccc1)c1ccccc1.O=C(O)C(=O)O | 212 | 0.07 mg/kg |
| CCC(OC(C)=O)C(CCN1CCC2(CCCc3ccccc32)CC1)(c1ccccc1)c1ccccc1.O=S(=O)(O)O (stereo unspecified) | 106 | 0.14 mg/kg |
| CCC(O)C(CCN1CCC2(CCCc3ccccc32)CC1)(c1ccccc1)c1ccccc1 (racemic) | 106 | 0.14 mg/kg |

Source: ChEMBL document CHEMBL3244141, “Synthesis and analgesic activity of some long-acting piperidinospiro derivatives of methadone” (1978)
